Results on three compounds are retold here after ChEMBL document CHEMBL3046822, “Synthesis, antiplatelet aggregation activity, and molecular modeling study of novel substituted-piperazine analogues” (2011).

Calls of active or inactive are those of the source. The rule behind the calls is not given here.

Experiment [1] has as its system Platelet. Kind of experiment: Antiaggregating activity in Homo sapiens (human) platelet rich plasma assessed as inhibition of arachidonic acid-induced platelet aggregation at 0.125 uM incubated for 4 min prior to arachidonic acid-induction measured for 5.5 min by turbidometric analysis. The experiment is classed as functional, cell-free.
Experiment [2] concerns Platelet. Kind of experiment: Antiaggregating activity in Homo sapiens (human) platelet rich plasma assessed as inhibition of adrenaline-induced platelet aggregation at 1 uM incubated for 4 min prior to adrenaline-induction measured for 5.5 min by turbidometric analysis. It is filed as functional, cell-free.
The test system of experiment [3] is Platelet. Kind of experiment: Antiaggregating activity in Homo sapiens (human) platelet rich plasma assessed as inhibition of ADP-induced platelet aggregation at 0.25 uM incubated for 4 min prior to ADP-induction measured for 5.5 min by turbidometric analysis. The experiment is classed as functional, cell-free.
Experiment [4] in a line: Antiaggregating activity in Homo sapiens (human) platelet rich plasma assessed as disaggregation of ristocetin-induced platelet aggregation at 0.25 uM incubated for 4 min prior to ristocetin-induction measured for 5.5 min by turbidometric analysis relative to control. It is filed as functional.
Experiment [5] has as its system Platelet. Briefly: Antiaggregating activity in Homo sapiens (human) platelet rich plasma assessed as inhibition of ADP-induced platelet aggregation at 1 uM incubated for 4 min prior to ADP-induction measured for 5.5 min by turbidometric analysis. The experiment is classed as functional, cell-free.
Experiment [6] concerns Platelet. Briefly: Antiaggregating activity in Homo sapiens (human) platelet rich plasma assessed as inhibition of collagen-induced platelet aggregation at 0.5 uM incubated for 4 min prior to collagen-induction measured for 5.5 min by turbidometric analysis. The experiment is classed as functional, cell-free.
Experiment [7] can be described thus: Antiaggregating activity in Homo sapiens (human) platelet rich plasma assessed as collagen-induced platelet aggregation at 0.125 uM incubated for 4 min prior to collagen-induction measured for 5.5 min by turbidometric analysis (reference value: 50 to 98%). It is filed as functional.
The test system of experiment [8] is Platelet. Kind of experiment: Antiaggregating activity in Homo sapiens (human) platelet rich plasma assessed as inhibition of arachidonic acid-induced platelet aggregation at 0.25 uM incubated for 4 min prior to arachidonic acid-induction measured for 5.5 min by turbidometric analysis. The experiment is classed as functional, cell-free.
Experiment [9] relates to Platelet. Briefly: Antiaggregating activity in Homo sapiens (human) platelet rich plasma assessed as inhibition of adrenaline-induced platelet aggregation at 0.5 uM incubated for 4 min prior to adrenaline-induction measured for 5.5 min by turbidometric analysis. The experiment is classed as functional, cell-free.
Experiment [10] in a line: Antiaggregating activity in Homo sapiens (human) platelet rich plasma assessed as ristocetin-induced platelet aggregation at 0.125 uM incubated for 4 min prior to ristocetin-induction measured for 5.5 min by turbidometric analysis (reference value: 65 to 99%). It is filed as functional.
Experiment [11] concerns Platelet. Kind of experiment: Antiaggregating activity in Homo sapiens (human) platelet rich plasma assessed as inhibition of arachidonic acid-induced platelet aggregation at 0.5 uM incubated for 4 min prior to arachidonic acid-induction measured for 5.5 min by turbidometric analysis. It is filed as functional.
Experiment [12] has as its system Platelet. Kind of experiment: Antiaggregating activity in Homo sapiens (human) platelet rich plasma assessed as inhibition of arachidonic acid-induced platelet aggregation at 1 uM incubated for 4 min prior to arachidonic acid-induction measured for 5.5 min by turbidometric analysis. The experiment is classed as functional, cell-free.
Experiment [13] relates to Platelet. Kind of experiment: Antiaggregating activity in Homo sapiens (human) platelet rich plasma assessed as inhibition of ADP-induced platelet aggregation at 0.5 uM incubated for 4 min prior to ADP-induction measured for 5.5 min by turbidometric analysis. The experiment is classed as functional, cell-free.
The test system of experiment [14] is Platelet. Briefly: Antiaggregating activity in Homo sapiens (human) platelet rich plasma assessed as inhibition of adrenaline-induced platelet aggregation at 0.25 uM incubated for 4 min prior to adrenaline-induction measured for 5.5 min by turbidometric analysis. It is filed as functional, cell-free.
In experiment [15] the test system is Platelet. Briefly: Antiaggregating activity in Homo sapiens (human) platelet rich plasma assessed as inhibition of collagen-induced platelet aggregation at 1 uM incubated for 4 min prior to collagen-induction measured for 5.5 min by turbidometric analysis. It is filed as functional, cell-free.
The nature of experiment [16]: Antiaggregating activity in Homo sapiens (human) platelet rich plasma assessed as ristocetin-induced platelet aggregation at 0.5 uM incubated for 4 min prior to ristocetin-induction measured for 5.5 min by turbidometric analysis (reference value: 65 to 99%). The experiment is classed as functional.
Experiment [17] relates to Platelet. Kind of experiment: Antiaggregating activity in Homo sapiens (human) platelet rich plasma assessed as inhibition of adrenaline-induced platelet aggregation at 0.125 uM incubated for 4 min prior to adrenaline-induction measured for 5.5 min by turbidometric analysis. The experiment is classed as functional, cell-free.
Experiment [18] relates to Platelet. Kind of experiment: Antiaggregating activity in Homo sapiens (human) platelet rich plasma assessed as inhibition of collagen-induced platelet aggregation at 0.25 uM incubated for 4 min prior to collagen-induction measured for 5.5 min by turbidometric analysis. It is filed as functional.
The nature of experiment [19]: Antiaggregating activity in Homo sapiens (human) platelet rich plasma assessed as disaggregation of ADP-induced platelet aggregation at 0.125 uM incubated for 4 min prior to ADP-induction measured for 5.5 min by turbidometric analysis relative to control. It is filed as functional.
The nature of experiment [20]: Antiaggregating activity in Homo sapiens (human) platelet rich plasma assessed as ristocetin-induced platelet aggregation at 1 uM incubated for 4 min prior to ristocetin-induction measured for 5.5 min by turbidometric analysis (reference value: 65 to 99%). It is filed as functional.
Experiment [21] relates to Platelet. Kind of experiment: Antiaggregating activity in Homo sapiens (human) platelet rich plasma assessed as ADP-induced platelet aggregation at 20 uM incubated for 4 min prior to ADP-induction measured for 5.5 min by turbidometric analysis (reference value: 54 to 88%). It is filed as functional.
In experiment [22] the test system is Platelet. Kind of experiment: Antiaggregating activity in Homo sapiens (human) platelet rich plasma assessed as inhibition of ristocetin-induced platelet aggregation at 20 uM incubated for 4 min prior to ristocetin-induction measured for 5.5 min by turbidometric analysis. The experiment is classed as functional, cell-free.
Experiment [23] has as its system Platelet. Briefly: Antiaggregating activity in Homo sapiens (human) platelet rich plasma assessed as inhibition of arachidonic acid-induced platelet aggregation at 10 uM incubated for 4 min prior to arachidonic acid-induction measured for 5.5 min by turbidometric analysis. The experiment is classed as functional, cell-free.
Experiment [24] relates to Platelet. Kind of experiment: Antiaggregating activity in Homo sapiens (human) platelet rich plasma assessed as inhibition of adrenaline-induced platelet aggregation at 10 uM incubated for 4 min prior to adrenaline-induction measured for 5.5 min by turbidometric analysis. The experiment is classed as functional, cell-free.
The nature of experiment [25]: Antiaggregating activity in Homo sapiens (human) platelet rich plasma assessed as arachidonic acid-induced platelet aggregation at 1 uM incubated for 4 min prior to arachidonic acid-induction measured for 5.5 min by turbidometric analysis (reference value: 55 to 100%). It is filed as functional.
Experiment [26] in a line: Antiaggregating activity in Homo sapiens (human) platelet rich plasma assessed as ADP-induced platelet aggregation at 1 uM incubated for 4 min prior to ADP-induction measured for 5.5 min by turbidometric analysis (reference value: 54 to 88%). It is filed as functional.
In experiment [27] the test system is Platelet. Kind of experiment: Antiaggregating activity in Homo sapiens (human) platelet rich plasma assessed as inhibition of ADP-induced platelet aggregation at 10 uM incubated for 4 min prior to ADP-induction measured for 5.5 min by turbidometric analysis. It is filed as functional, cell-free.
For experiment [28], the system named is Platelet. Briefly: Antiaggregating activity in Homo sapiens (human) platelet rich plasma assessed as inhibition of adrenaline-induced platelet aggregation at 20 uM incubated for 4 min prior to adrenaline-induction measured for 5.5 min by turbidometric analysis. The experiment is classed as functional, cell-free.
The nature of experiment [29]: Antiaggregating activity in Homo sapiens (human) platelet rich plasma assessed as ristocetin-induced platelet aggregation at 10 uM incubated for 4 min prior to ristocetin-induction measured for 5.5 min by turbidometric analysis (reference value: 65 to 99%). The experiment is classed as functional.
Experiment [30] has as its system Platelet. Briefly: Antiaggregating activity in Homo sapiens (human) platelet rich plasma assessed as inhibition of collagen-induced platelet aggregation at 5 uM incubated for 4 min prior to collagen-induction measured for 5.5 min by turbidometric analysis. The experiment is classed as functional, cell-free.
Experiment [31] can be described thus: Antiaggregating activity in Homo sapiens (human) platelet rich plasma assessed as ADP-induced platelet aggregation at 5 uM incubated for 4 min prior to ADP-induction measured for 5.5 min by turbidometric analysis (reference value: 54 to 88%). The experiment is classed as functional.
The nature of experiment [32]: Antiaggregating activity in Homo sapiens (human) platelet rich plasma assessed as ristocetin-induced platelet aggregation at 5 uM incubated for 4 min prior to ristocetin-induction measured for 5.5 min by turbidometric analysis (reference value: 65 to 99%). The experiment is classed as functional.
Experiment [33] has as its system Platelet. Briefly: Antiaggregating activity in Homo sapiens (human) platelet rich plasma assessed as inhibition of adrenaline-induced platelet aggregation at 5 uM incubated for 4 min prior to adrenaline-induction measured for 5.5 min by turbidometric analysis. It is filed as functional, cell-free.
The subject of experiment [34] is Platelet. Kind of experiment: Antiaggregating activity in Homo sapiens (human) platelet rich plasma assessed as inhibition of arachidonic acid-induced platelet aggregation at 20 uM incubated for 4 min prior to arachidonic acid-induction measured for 5.5 min by turbidometric analysis. It is filed as functional, cell-free.
Experiment [35] deals with Platelet. Kind of experiment: Antiaggregating activity in Homo sapiens (human) platelet rich plasma assessed as inhibition of collagen-induced platelet aggregation at 10 uM incubated for 4 min prior to collagen-induction measured for 5.5 min by turbidometric analysis. The experiment is classed as functional, cell-free.
Experiment [36] is described as follows: Antiaggregating activity in Homo sapiens (human) platelet rich plasma assessed as collagen-induced platelet aggregation at 1 uM incubated for 4 min prior to collagen-induction measured for 5.5 min by turbidometric analysis (reference value: 50 to 98%). It is filed as functional.
The test system of experiment [37] is Platelet. Briefly: Antiaggregating activity in Homo sapiens (human) platelet rich plasma assessed as inhibition of collagen-induced platelet aggregation at 20 uM incubated for 4 min prior to collagen-induction measured for 5.5 min by turbidometric analysis. The experiment is classed as functional, cell-free.
The test system of experiment [38] is Platelet. Briefly: Antiaggregating activity in Homo sapiens (human) platelet rich plasma assessed as inhibition of arachidonic acid-induced platelet aggregation at 5 uM incubated for 4 min prior to arachidonic acid-induction measured for 5.5 min by turbidometric analysis. It is filed as functional, cell-free.
Experiment [39] can be described thus: Antiaggregating activity in Homo sapiens (human) platelet rich plasma assessed as ADP-induced platelet aggregation at 0.125 uM incubated for 4 min prior to ADP-induction measured for 5.5 min by turbidometric analysis (reference value: 54 to 88%). The experiment is classed as functional.
Experiment [40] can be described thus: Antiaggregating activity in Homo sapiens (human) platelet rich plasma assessed as ADP-induced platelet aggregation at 0.25 uM incubated for 4 min prior to ADP-induction measured for 5.5 min by turbidometric analysis (reference value: 54 to 88%). It is filed as functional.
Experiment [41] is described as follows: Antiaggregating activity in Homo sapiens (human) platelet rich plasma assessed as arachidonic acid-induced platelet aggregation at 0.125 uM incubated for 4 min prior to arachidonic acid-induction measured for 5.5 min by turbidometric analysis (reference value: 55 to 100%). It is filed as functional.
The nature of experiment [42]: Antiaggregating activity in Homo sapiens (human) platelet rich plasma assessed as collagen-induced platelet aggregation at 0.25 uM incubated for 4 min prior to collagen-induction measured for 5.5 min by turbidometric analysis (reference value: 50 to 98%). It is filed as functional.
Experiment [43] is described as follows: Antiaggregating activity in Homo sapiens (human) platelet rich plasma assessed as ristocetin-induced platelet aggregation at 0.25 uM incubated for 4 min prior to ristocetin-induction measured for 5.5 min by turbidometric analysis (reference value: 65 to 99%). It is filed as functional.
Experiment [44] is described as follows: Antiaggregating activity in Homo sapiens (human) platelet rich plasma assessed as disaggregation of ADP-induced platelet aggregation at 0.5 uM incubated for 4 min prior to ADP-induction measured for 5.5 min by turbidometric analysis relative to control. The experiment is classed as functional.

On to `Cl.O=C(C1CCCN(Cc2ccc(F)cc2)C1)N1CCN(c2ccccc2Cl)CC1` (stereo not given), for which the inhibition entry in [1], in experiment [2], in experiment [3], in experiment [5], in experiment [6] and in [8] was “Active” each time. The inhibition entry in experiment [9], in experiment [11], in experiment [12], in [13], in experiment [14] and in [15] was “Active” each time. For the same compound, the inhibition result in experiment [17] and in [18] was “Active” in each case. The Activity in experiment [4] stood at 68%; in experiment [7], 72%; in [10] it was 100%; in experiment [16], 67%; in experiment [19], 80%; in experiment [20], 40%.
For `O=C(c1ccc[n+](Cc2ccc(Br)cc2)c1)N1CCN(c2ncccn2)CC1.[Br-]`, the inhibition entry in [21], in [22], in experiment [2], in experiment [23], in [24] and in experiment [27] was “Active” throughout. Also, the inhibition entry in experiment [28], in experiment [30], in experiment [33], in experiment [34], in experiment [35] and in experiment [37] was “Active” throughout. For the same compound, in [38], the inhibition result was “Active”. In addition, the Activity in experiment [25] was 52%; in experiment [26], 60%; in experiment [29], 27%; in experiment [31], 64%; in experiment [32] it was 43%; in experiment [36], 64%. Also, the Activity in experiment [20] turned out to be 60%.
As for `O=C(c1ccc[n+](Cc2ccc(Br)cc2)c1)N1CCN(c2ccccc2Cl)CC1.[Br-]`, the Activity was determined as 84% in experiment [39]; 74% in [40]; 68% in experiment [41]; 67% in experiment [7]; 77% in experiment [42]; 84% in experiment [10]. In addition, the Activity in experiment [43] was found to be 84%; in experiment [44], 52%; in experiment [16], 78%; in experiment [20], 69%. In addition, the inhibition entry in experiment [2], in [5], in experiment [6], in experiment [8], in [9] and in [11] was “Active” in each case. In addition, the inhibition result in experiment [12], in experiment [14], in [15] and in experiment [17] was “Active” in each case.
